According to patent US8252775B2, “Method of treating multiple sclerosis with phosphocholine containing lipids” (priority 2005, dated 2012):
Values joined by “and” are separate entries in the source; they are usually repeats but may differ in a detail not shown here. Equal values may be shown once. “Also recorded” adds a separate entry of the source.

Key:
[1] = test system: TCR Tg LN cells; test: 7AAD uptake (cell death) in MBPAc1-11-stimulated TCR Tg cells; type: cell-based; details: 75 μM lipid, 5 μg/ml MBPAc1-11, 48 hours
Description: (§1) FIG. 6a-6d. PGPC slows the rate of T cell proliferation. […] The 0 hour time point is shown as the high peak with the black dashed line. (c) 7AAD stained cells from TCR Tg mice^33, 48 hours after incubation with 5 μg/ml MBPAc1-11 with or without lipid. […] (d) LN cells stimulated with 1 μg/ml MBPAC1-11, 30 μg/ml PGPC, with or without 50 U/ml IL-2 are depicted.
(§2) To determine if the PGPC-mediated reduction in the proliferation rate of MBPAC1-11 stimulated T cells was due to cell death, we examined 7AAD uptake to identify dead cells at the 48 hour time point (FIG. 6c). […] This effect could be reversed by the addition of 50 U/ml IL-2 (p=0.024, Student's t test) (FIG. 6d), consistent with IL-2 mediated rescue of the T cells from an anergic state.
Flow cytometric analysis. Cells were stained and run on a FACScan flow cytometer (BD Biosciences) using CellQuest software (BD Immunocytometry Systems). Results were analyzed using FlowJo software version 6.3.2 (Tree Star, Inc.). The following antibody conjugates were used: PE anti-mouse CD3, clone 145-2C11; FITC anti-mouse CD4, clone GK1.5; PE anti-mouse CD4, clone GK1.5; FITC anti-mouse CD8, clone 53-6.7; PE-anti-mouse CD69, clone H1.2F3. All anti-CD3, CD4, and CD8 antibodies were purchased from BD Pharmingen. Anti-mouse CD69 was purchased from eBioscience. […]

[2] = test system: MBPAc1-11-specific T cells; test: 3H-thymidine proliferation of MBPAc1-11-stimulated LN cells with lipid in vitro; type: cell-based, mice
Description: as §1, §2
Proliferation and cytokine assays. We sacrificed mice and harvested their lymph node cells and splenocytes. 2.5×10^6 cells/ml were stimulated in vitro with 10 μg/ml PLP139-151, 1 μg/ml ConA, or media alone. Cells were cultured in RPMI 1640 with 10% fetal bovine serum, supplemented with L-glutamine (2 mM), sodium pyruvate (1 mM), non-essential amino acids (0.1 mM), penicillin (100 U/ml), streptomycin (0.1 mg/ml), and 2-mercaptoethanol (50 μM). To assess proliferation, 1 μCi of ^3H-thymidine was added to each well at 48 hours for the final 18 hours of culture, and radioactivity incorporation quantified using a Betaplate scintillation counter. […]

[3] = test system: TCR Tg LN cells; test: CFSE T cell proliferation assay, MBPAc1-11-stimulated TCR Tg LN cells; type: cell-based, mice; details: 75 μM lipid, 5 μg/ml MBPAc1-11, 48 hours, CD3+ and CD4+ cells; vs media alone
[4] = test system: IFNγ; test: IFNγ ELISA on PLP139-151-stimulated cells from lipid-treated EAE mice; type: in vivo; details: vs controls; for IFNγ secretion by lymph node cells: LN cells from treated EAE mice stimulated with PLP139-151
Description: (§3) FIG. 5a-5b. PGPC treatment lowers IFNgamma secretion and early activation marker expression in response to the encephalitogenic antigen. (a) CD69 expression on CD4^+ and CD8^+PI^− lymphocytes (live cells) after 4 days in culture with 10 μg/ml PLP139-151. The ratio of CD69^+CD4^+:CD69^−CD4^+ is 14.2%:39.6% for lymph node cells from vehicle-treated mice, 9.6%:43.8% for cells from sphingomyelin-treated mice, and 7.96%:55.2% for cells from PGPC-treated mice. […] (b) Proliferation and cytokine assays of lymph node cells and splenocytes isolated from vehicle, PGPC, and sphingomyelin-treated mice in FIG. 4c.
(§4) Mice were sacrificed 48 days after disease induction and their spleens and lymph nodes (LN) harvested for analyses of expression of activation markers on subsets of T cells, measurements of secreted cytokines, and levels of T cell proliferation. Isolated cells were restimulated with the encephalitogenic antigen PLP139-151 and analyzed by flow cytometry. Dead cells (identified based on staining with propidium iodide) were eliminated from the analyses, and cells double stained with CD4-FITC or CD8-FITC and CD69-PE are presented (FIG. 5a). […] Specifically, the cells isolated from vehicle treated mice were 39.6% CD4^+CD69^− and 14.2% CD4^+CD69^+, whereas cells from PGPC treated mice were 55.2% CD4^+CD69^− and 7.96% CD4^+CD69^+.
Proliferation and cytokine assays. We sacrificed mice and harvested their lymph node cells and splenocytes. 2.5×10^6 cells/ml were stimulated in vitro with 10 μg/ml PLP139-151, 1 μg/ml ConA, or media alone. Cells were cultured in RPMI 1640 with 10% fetal bovine serum, supplemented with L-glutamine (2 mM), sodium pyruvate (1 mM), non-essential amino acids (0.1 mM), penicillin (100 U/ml), streptomycin (0.1 mg/ml), and 2-mercaptoethanol (50 μM). To assess proliferation, 1 μCi of ^3H-thymidine was added to each well at 48 hours for the final 18 hours of culture, and radioactivity incorporation quantified using a Betaplate scintillation counter. Cytokine assays were performed on culture supernatants after 66 hours of culture using the BD OptEIA™ Mouse IFNγ ELISA kit (BD Biosciences). Results are shown as mean of triplicates+s.e.m.

[5] = test system: EAE; test: Prevention of EAE by co-delivery of lipid with PLP139-151/CFA; type: in vivo; details: SJL/J mice; 6 μg lipid with 100 μg PLP139-151 in CFA s.c. day 0, 6 μg i.p. days 4 and 7; vs vehicle
[6] = test system: splenocytes; test: 3H-thymidine proliferation of PLP139-151-stimulated splenocytes from lipid-treated EAE mice; type: in vivo; details: PLP139-151-stimulated splenocytes from treated EAE mice
Description: as §3
Mice were sacrificed 48 days after disease induction and their spleens and lymph nodes (LN) harvested for analyses of expression of activation markers on subsets of T cells, measurements of secreted cytokines, and levels of T cell proliferation. Isolated cells were restimulated with the encephalitogenic antigen PLP139-151 and analyzed by flow cytometry. Dead cells (identified based on staining with propidium iodide) were eliminated from the analyses, and cells double stained with CD4-FITC or CD8-FITC and CD69-PE are presented (FIG. 5a). […]
(§5) Proliferation and cytokine assays. […] To assess proliferation, 1 μCi of ^3H-thymidine was added to each well at 48 hours for the final 18 hours of culture, and radioactivity incorporation quantified using a Betaplate scintillation counter. […]

[7] = test system: EAE; test: Treatment of established EAE with intravenous lipid; type: in vivo, mice; details: 100 μg lipid i.v. at onset of paralysis and days 3, 6, 12, 18; five injections; vs vehicle
[8] = test system: CD69 expression on CD4+ T cells; test: Flow cytometry of CD69 on restimulated lymph node cells from lipid-treated EAE mice; type: in vivo; details: for expression of early activation marker CD69 on CD4+ T cells: cells from treated EAE mice restimulated with PLP139-151, vs vehicle; for CD4+CD69+ cells / CD4+CD69− cells: lymph node cells of treated EAE mice, 4 days culture with 10 μg/ml PLP139-151; for CD4+CD69+ cells: vehicle 14.2%; for CD4+CD69− cells: vehicle 39.6%
Description: as §3, §4
Flow cytometric analysis. Cells were stained and run on a FACScan flow cytometer (BD Biosciences) using CellQuest software (BD Immunocytometry Systems). Results were analyzed using FlowJo software version 6.3.2 (Tree Star, Inc.). The following antibody conjugates were used: PE anti-mouse CD3, clone 145-2C11; FITC anti-mouse CD4, clone GK1.5; PE anti-mouse CD4, clone GK1.5; FITC anti-mouse CD8, clone 53-6.7; PE-anti-mouse CD69, clone H1.2F3. All anti-CD3, CD4, and CD8 antibodies were purchased from BD Pharmingen. Anti-mouse CD69 was purchased from eBioscience. 7AAD staining was performed using the reagents from the Annexin V-PE Apoptosis Detection Kit I (BD Pharmingen) using the manufacturer's recommended staining protocol. CFSE staining was performed on freshly isolated lymph node cells by mixing equal volumes of 37° C. pre-warmed cells in PBS containing 5% FBS with 10 μM solution of pre-warmed CFSE probe (CellTrace™ CFSE Cell Proliferation Kit) as described in the manufacturer's alternate method for labelling cells in solution (Molecular Probes).

[9] = test system: TNFα; test: TNFα production by PLP139-151-specific T cells from sulfatide co-immunized mice; type: in vivo; details: T cells from mice immunized with PLP139-151+sulfatide
[10] = test system: IL-4; test: IL-4 production by PLP139-151-specific T cells from sulfatide co-immunized mice; type: in vivo; details: T cells from mice immunized with PLP139-151+sulfatide
Description: (§6) FIG. 9. […] (a) Co-immunization of SJL mice with sulfatide (6 μg/mouse) and PLP139-151 (100 μg/mouse) emulsified in CFA (▪ sulfatide n=10, ▪ vehicle control n=10). An additional immunization of sulfatide (6 μg/mouse) or vehicle was given i.p. on d4 and d7 post-immunization. Each point represents the mean+s.e.m. (*p<0.05; Student's t test). […] The heatmap and dendrograms represent the SAM and hierarchical cluster analysis of lipid array results. (c) Modulation of EAE disease course after i.v. injection of O4 anti-sulfatide antibody versus IgM isotype control (▪ O4 n=5, ▪ IgM control n=5). Antibody was given on days 14, 17, and 19 post-immunization.
(§7) Further, the exacerbation of mouse EAE was associated with increased lymphocyte production of pro-inflammatory cytokines. Thus, characterization of the effects of candidate lipids in the mouse EAE model for MS (EAE), both with regard to their effects on disease severity as well as the production of pro-inflammatory cytokines by autoreactive lymphocytes can be used to identify lipids likely to exacerbated MS.

[11] = test system: IFNγ; test: IFNγ production by PLP139-151-specific T cells from sulfatide co-immunized mice; type: in vivo; details: T cells from mice immunized with PLP139-151+sulfatide
Description: as §6, §7
as §5, with “assays. We sacrificed mice and harvested their lymph node cells and splenocytes.” for “assays.”

[12] = test system: IL-12; test: IL-12 production by lymphocytes from sulfatide-treated mice; type: in vivo; details: lymphocytes from sulfatide-treated mice (sulfatide+PLP139-151)
Description: as §6

[13] = test system: anti-lipid antibodies; test: Lipid array analysis of serum from mice co-immunized with PLP139-151 plus sulfatide; type: in vivo; details: SJL mice co-immunized with PLP139-151 plus sulfatide
Description: as §6
Probing lipid arrays. Arrays were blocked overnight in 4° C. with 1% fatty acid free bovine serum albumin (BSA; Sigma) in phosphate buffered saline (PBS; Gibco BRL). Arrays were then probed with 1/10 dilutions of CSF, or 1/200 dilutions of sera for 2 hours at 4° C. After washing with blocking solution, a secondary antibody (anti-human IgG+IgM, Jackson Immunoresearch; anti-human IgG, Jackson Immunoresearch; anti-rabbit IgG, Amersham; or anti-mouse IgG, Amersham) conjugated to horseradish peroxidase (HRP) was added in blocking solution, and bound secondary antibodies visualized using chemiluminescence (ECL Plus, Amersham) and autoradiography. […]

[14] = test system: EAE; test: Co-immunization with sulfatide plus PLP139-151, EAE disease course; type: in vivo; details: SJL mice; sulfatide 6 μg/mouse with PLP139-151 in CFA day 0, i.p. d4 and d7; vs vehicle
Description: as §6, §7
EAE induction and lipid co-immunization. […] Clinical disease was monitored daily using the following scoring system: 0, no disease; 1, limp tail; 2, hindlimb weakness; 3, hindlimb paralysis; 4, hindlimb and forelimb paralysis; 5, death. […]

Row | Compound | cell death by 7AAD uptake [1] | effect of IL-2 on PGPC-mediated reduction of proliferation ([2]; 1 μg/ml MBPAc1-11, 30 μg/ml PGPC plus 50 U/ml IL-2) | MBPAc1-11-specific T cell proliferation (3H-thymidine incorporation) ([2]; LN cells, 1 μg/ml MBPAc1-11, 30 μg/ml PGPC) | T cell proliferation by CFSE staining [3] | IFNγ secretion by lymph node cells [4] | IFNγ secretion by lymph node cells ([4]; listed as PCPG) | IFNγ secretion by splenocytes ([4]; splenocytes from treated EAE mice stimulated with PLP139-151) | severity of EAE (prevention) [5] | 3H-thymidine incorporation (proliferation) of splenocytes [6] | severity of paralysis in established EAE [7] | expression of early activation marker CD69 on CD4+ T cells [8] | CD4+CD69+ cells [8] | CD4+CD69− cells [8] [%] | TNFα production in response to PLP139-151 [9] | IL-4 production in response to PLP139-151 [10] | IFNγ production in response to PLP139-151 [11] | IL-12 production [12] | anti-lipid antibody reactivities in serum [13] | EAE disease course after co-immunization [14]
1 | CCCCCCCCCCCCCCCC(=O)OC[C@H](COP(=O)([O-])OCC[N+](C)(C)C)OC(=O)CCCC(=O)O [PGPC, 1-palmitoyl-2-glutaroyl-sn-glycero-3-phosphocholine] | not due to cell death; also recorded: not inducing cell death | IL-2 reversed this effect | statistically significant reductions in MBPAc1-11-specific T cell proliferation; also recorded: reduced cell proliferation | slowed T cell proliferation; also recorded: reduces T cell proliferation rates; also recorded: reduced cell divisions | secreted less IFNgamma; also recorded: secreted lower levels of IFNγ | decreased IFNγ levels | secreted less IFNgamma; also recorded: secreted lower levels of IFNγ | statistically reduced the severity of EAE; also recorded: ameliorates EAE | reduced; also recorded: slightly lower proliferation | reduced the severity of paralysis; also recorded: treats ongoing disease | marked reduction in the expression of the early activation marker CD69 | 7.96% | 55.2 |  |  |  |  |  | 
2 | sphingomyelin |  |  |  | mirrored that of the control; also recorded: line parallels gray shaded area | decreased IFNγ levels |  |  | statistically reduced the severity of EAE; also recorded: ameliorates EAE |  | only PGPC treats ongoing disease | intermediate level of CD69 expression | 9.61% and 9.6% | 43.8 |  |  |  |  |  | 
3 | sulfatide |  |  |  |  |  |  |  |  |  |  |  |  |  | increased amounts | less and lower levels | increased amounts; also recorded: increased levels | increased levels | increased anti-sulfatide and other anti-lipid antibody reactivities; also recorded: increased anti-lipid antibodies | exacerbated murine MS; also recorded: more severe EAE disease course
